{"source": "patent US6737383B1", "about": "“Herbicidal oxadiazolidines” (priority 1999, dated 2004)", "key": {"corn": {"system": "corn", "test": "Test B pre/postemergence corn", "type": "in vivo, Zea mays", "method_in_brief": "(§1)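 Test chemicals in a non-phytotoxic solvent mixture with surfactant were sprayed preemergence onto planted seeds and postemergence onto plants 2 to 18 cm tall (1- to 4-leaf stage). After twelve to sixteen days in a greenhouse, injury was visually rated against untreated controls from 0 (no effect) to 10 (complete control).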"}, "wheat": {"system": "wheat", "test": "Test B pre/postemergence wheat", "type": "in vivo, Triticum aestivum", "method_in_brief": "as §1"}, "morningglory": {"system": "morningglory", "test": "Test B pre/postemergence morningglory", "type": "in vivo, Ipomoea hederacea", "method_in_brief": "as §1"}, "blackgrass": {"system": "blackgrass", "test": "Test B pre/postemergence blackgrass", "type": "in vivo, Alopecurus myosuroides", "method_in_brief": "as §1"}, "bedstraw": {"system": "bedstraw", "test": "Test B pre/postemergence bedstraw", "type": "in vivo, Galium aparine", "method_in_brief": "as §1"}, "surinam grass": {"system": "surinam grass", "test": "Test B pre/postemergence surinam grass", "type": "in vivo, Brachiaria decumbens", "method_in_brief": "as §1"}, "giant foxtail": {"system": "giant foxtail", "test": "Test B pre/postemergence giant foxtail", "type": "in vivo, Setaria faberii", "method_in_brief": "as §1"}, "cocklebur": {"system": "cocklebur", "test": "Test B pre/postemergence cocklebur", "type": "in vivo, Xanthium strumarium", "method_in_brief": "as §1"}, "rape": {"system": "rape", "test": "Test B pre/postemergence rape", "type": "in vivo, Brassica napus", "method_in_brief": "as §1"}, "crabgrass": {"system": "crabgrass", "test": "Test B pre/postemergence crabgrass", "type": "in vivo, Digitaria sanguinalis", "method_in_brief": "as §1"}, "sugar beet": {"system": "sugar beet", "test": "Test B pre/postemergence sugar beet", "type": "in vivo, Beta vulgaris", "method_in_brief": "as §1"}, "soybean": {"system": "soybean", "test": "Test B pre/postemergence soybean", "type": "in vivo, Glycine max", "method_in_brief": "as §1"}, "pigweed": {"system": "pigweed", "test": "Test B pre/postemergence pigweed", "type": "in vivo, Amaranthus retroflexus", "method_in_brief": "as §1"}, "purple nutsedge": {"system": "purple nutsedge", "test": "Test B pre/postemergence purple nutsedge", "type": "in vivo, Cyperus rotundus", "method_in_brief": "as §1"}, "velvetleaf": {"system": "velvetleaf", "test": "Test B pre/postemergence velvetleaf", "type": "in vivo, Abutilon theophrasti", "method_in_brief": "as §1"}, "wild oat": {"system": "wild oat", "test": "Test B pre/postemergence wild oat", "type": "in vivo, Avena fatua", "method_in_brief": "as §1"}, "[1]": {"conditions": "Postemergence, Rate 125 g/ha, scale 0 to 10, 0 is no effect, 10 is complete control"}, "[2]": {"conditions": "Postemergence, Rate 250 g/ha, scale 0 to 10"}, "[3]": {"conditions": "Postemergence, Rate 500 g/ha, scale 0 to 10, 0 is no effect, 10 is complete control"}, "[4]": {"conditions": "Preemergence, Rate 62 g/ha, scale of 0 to 10 where 0 is no effect and 10 is complete control"}, "[5]": {"conditions": "Preemergence, Rate 125 g/ha, scale 0 to 10, 0 is no effect, 10 is complete control"}, "[6]": {"conditions": "Preemergence, Rate 500 g/ha, scale of 0 to 10 where 0 is no effect and 10 is complete control"}, "[7]": {"conditions": "Rate 62 g/ha, Postemergence, scale 0 to 10, 0 no effect, 10 complete control"}, "[8]": {"conditions": "Preemergence, Rate 250 g/ha, scale 0 to 10, 0 is no effect, 10 is complete control"}, "[9]": {"conditions": "Preemergence, Rate 500 g/ha, scale 0 to 10, 0 is no effect, 10 is complete control"}}}
{"molecule": "CC(C)N(C(=O)n1oc(=O)n(CC2=CCCN(C)C2)c1=O)c1ccccc1", "note": "[Compound 497]", "values": [{"measurement": "Corn plant response rating", "setting": "corn; [1]", "value": 0}, {"measurement": "Corn plant response rating", "setting": "corn; [2]", "value": 0}, {"measurement": "Plant response rating, Corn", "setting": "corn; [3]", "value": 0}, {"measurement": "Plant response rating, Corn", "setting": "corn; [4]", "value": 0}, {"measurement": "Corn plant response rating", "setting": "corn; [5]", "value": 0}, {"measurement": "Corn plant response rating", "setting": "corn; [6]", "value": 0}, {"measurement": "Corn plant response rating", "setting": "corn; [7]", "value": 0}, {"measurement": "Wheat plant response rating", "setting": "wheat; [1]", "value": 0}, {"measurement": "Plant response rating, Wheat", "setting": "wheat; [3]", "value": 0}, {"measurement": "Plant response rating, Wheat", "setting": "wheat; [4]", "value": 0}, {"measurement": "Wheat plant response rating", "setting": "wheat; [5]", "value": 0}, {"measurement": "Wheat plant response rating", "setting": "wheat; [6]", "value": 0}, {"measurement": "Wheat plant response rating", "setting": "wheat; [7]", "value": 0}, {"measurement": "Morningglory plant response rating", "setting": "morningglory; [1]", "value": 0}, {"measurement": "Plant response rating, Morningglory", "setting": "morningglory; [3]", "value": 0}, {"measurement": "Plant response rating, Morningglory", "setting": "morningglory; [4]", "value": 0}, {"measurement": "Morningglory plant response rating", "setting": "morningglory; [5]", "value": 0}, {"measurement": "Morningglory plant response rating", "setting": "morningglory; [6]", "value": 0}, {"measurement": "Morningglory plant response rating", "setting": "morningglory; [7]", "value": 0}, {"measurement": "Blackgrass plant response rating", "setting": "blackgrass; [1]", "value": 0}, {"measurement": "Blackgrass plant response rating", "setting": "blackgrass; [2]", "value": 0}, {"measurement": "Plant response rating, Blackgrass", "setting": "blackgrass; [3]", "value": 0}, {"measurement": "Plant response rating, Blackgrass", "setting": "blackgrass; [4]", "value": 0}, {"measurement": "Blackgrass plant response rating", "setting": "blackgrass; [5]", "value": 0}, {"measurement": "Blackgrass plant response rating", "setting": "blackgrass; [8]", "value": 0}, {"measurement": "Blackgrass plant response rating", "setting": "blackgrass; [6]", "value": 0}, {"measurement": "Blackgrass plant response rating", "setting": "blackgrass; [7]", "value": 0}, {"measurement": "Bedstraw plant response rating", "setting": "bedstraw; [1]", "value": 0}, {"measurement": "Plant response rating, Bedstraw", "setting": "bedstraw; [4]", "value": 0}, {"measurement": "Bedstraw plant response rating", "setting": "bedstraw; [8]", "value": 0}, {"measurement": "Bedstraw plant response rating", "setting": "bedstraw; [9]", "value": 0}, {"measurement": "Bedstraw plant response rating", "setting": "bedstraw; [7]", "value": 0}, {"measurement": "B. signalgrass plant response rating", "setting": "surinam grass; [1]", "value": 0}, {"measurement": "B. signalgrass plant response rating", "setting": "surinam grass; Postemergence, Rate 250 g/ha, scale 0 to 10, 0 no effect, 10 complete control", "value": 0}, {"measurement": "Plant response rating, B. signalgrass", "setting": "surinam grass; [3]", "value": 0}, {"measurement": "Plant response rating, B. signalgrass", "setting": "surinam grass; [4]", "value": 0}, {"measurement": "B. signalgrass plant response rating", "setting": "surinam grass; [5]", "value": 0}, {"measurement": "B. signalgrass plant response rating", "setting": "surinam grass; [8]", "value": 0}, {"measurement": "B. signalgrass plant response rating", "setting": "surinam grass; [9]", "value": 0}, {"measurement": "B. signalgrass plant response rating", "setting": "surinam grass; [7]", "value": 0}, {"measurement": "Giant foxtail plant response rating", "setting": "giant foxtail; [1]", "value": 0}, {"measurement": "Plant response rating, Giant foxtail", "setting": "giant foxtail; [3]", "value": 0}, {"measurement": "Plant response rating, Giant foxtail", "setting": "giant foxtail; [4]", "value": 0}, {"measurement": "Giant foxtail plant response rating", "setting": "giant foxtail; [5]", "value": 0}, {"measurement": "Giant foxtail plant response rating", "setting": "giant foxtail; [6]", "value": 0}, {"measurement": "Giant foxtail plant response rating", "setting": "giant foxtail; [7]", "value": 0}, {"measurement": "Cocklebur plant response rating", "setting": "cocklebur; [1]", "value": 0}, {"measurement": "Cocklebur plant response rating", "setting": "cocklebur; [2]", "value": 0}, {"measurement": "Plant response rating, Cocklebur", "setting": "cocklebur; [3]", "value": 0}, {"measurement": "Plant response rating, Cocklebur", "setting": "cocklebur; [4]", "value": 0}, {"measurement": "Cocklebur plant response rating", "setting": "cocklebur; [5]", "value": 0}, {"measurement": "Cocklebur plant response rating", "setting": "cocklebur; [8]", "value": 0}, {"measurement": "Cocklebur plant response rating", "setting": "cocklebur; [6]", "value": 0}, {"measurement": "Cocklebur plant response rating", "setting": "cocklebur; [7]", "value": 0}, {"measurement": "Rape plant response rating", "setting": "rape; [1]", "value": 0}, {"measurement": "Plant response rating, Rape", "setting": "rape; [3]", "value": 0}, {"measurement": "Plant response rating, Rape", "setting": "rape; [4]", "value": 0}, {"measurement": "Rape plant response rating", "setting": "rape; [5]", "value": 0}, {"measurement": "Rape plant response rating", "setting": "rape; [6]", "value": 0}, {"measurement": "Rape plant response rating", "setting": "rape; [7]", "value": 0}, {"measurement": "Crabgrass plant response rating", "setting": "crabgrass; [1]", "value": 0}, {"measurement": "Crabgrass plant response rating", "setting": "crabgrass; [2]", "value": 0}, {"measurement": "Plant response rating, Crabgrass", "setting": "crabgrass; [3]", "value": 0}, {"measurement": "Plant response rating, Crabgrass", "setting": "crabgrass; [4]", "value": 0}, {"measurement": "Crabgrass plant response rating", "setting": "crabgrass; [5]", "value": 0}, {"measurement": "Crabgrass plant response rating", "setting": "crabgrass; [6]", "value": 0}, {"measurement": "Crabgrass plant response rating", "setting": "crabgrass; [7]", "value": 0}, {"measurement": "Sugarbeets plant response rating", "setting": "sugar beet; [1]", "value": 0}, {"measurement": "Plant response rating, Sugarbeets", "setting": "sugar beet; [3]", "value": 0}, {"measurement": "Plant response rating, Sugarbeets", "setting": "sugar beet; [4]", "value": 0}, {"measurement": "Sugarbeets plant response rating", "setting": "sugar beet; [5]", "value": 0}, {"measurement": "Sugarbeets plant response rating", "setting": "sugar beet; [6]", "value": 0}, {"measurement": "Sugarbeets plant response rating", "setting": "sugar beet; [7]", "value": 0}, {"measurement": "Soybean plant response rating", "setting": "soybean; [1]", "value": 1}, {"measurement": "Plant response rating, Soybean", "setting": "soybean; [3]", "value": 2}, {"measurement": "Plant response rating, Soybean", "setting": "soybean; [4]", "value": 0}, {"measurement": "Soybean plant response rating", "setting": "soybean; [5]", "value": 0}, {"measurement": "Soybean plant response rating", "setting": "soybean; [6]", "value": 0}, {"measurement": "Soybean plant response rating", "setting": "soybean; [7]", "value": 0}, {"measurement": "Redroot pigweed plant response rating", "setting": "pigweed; [1]", "value": 0}, {"measurement": "Plant response rating, Redroot pigweed", "setting": "pigweed; [3]", "value": 0}, {"measurement": "Plant response rating, Redroot pigweed", "setting": "pigweed; [4]", "value": 0}, {"measurement": "Redroot pigweed plant response rating", "setting": "pigweed; [5]", "value": 0}, {"measurement": "Redroot pigweed plant response rating", "setting": "pigweed; [6]", "value": 0}, {"measurement": "Redroot pigweed plant response rating", "setting": "pigweed; [7]", "value": 0}, {"measurement": "Nutsedge plant response rating", "setting": "purple nutsedge; [1]", "value": 0}, {"measurement": "Plant response rating, Nutsedge", "setting": "purple nutsedge; [3]", "value": 0}, {"measurement": "Plant response rating, Nutsedge", "setting": "purple nutsedge; [4]", "value": 0}, {"measurement": "Nutsedge plant response rating", "setting": "purple nutsedge; [5]", "value": 0}, {"measurement": "Nutsedge plant response rating", "setting": "purple nutsedge; [6]", "value": 0}, {"measurement": "Nutsedge plant response rating", "setting": "purple nutsedge; [7]", "value": 0}, {"measurement": "Velvetleaf plant response rating", "setting": "velvetleaf; [1]", "value": 0}, {"measurement": "Plant response rating, Velvetleaf", "setting": "velvetleaf; [3]", "value": 0}, {"measurement": "Plant response rating, Velvetleaf", "setting": "velvetleaf; [4]", "value": 0}, {"measurement": "Velvetleaf plant response rating", "setting": "velvetleaf; [5]", "value": 0}, {"measurement": "Velvetleaf plant response rating", "setting": "velvetleaf; [6]", "value": 0}, {"measurement": "Velvetleaf plant response rating", "setting": "velvetleaf; [7]", "value": 0}, {"measurement": "Wild oats plant response rating", "setting": "wild oat; [1]", "value": 0}, {"measurement": "Plant response rating, Wild oats", "setting": "wild oat; [3]", "value": 0}, {"measurement": "Plant response rating, Wild oats", "setting": "wild oat; [4]", "value": 0}, {"measurement": "Wild oats plant response rating", "setting": "wild oat; [5]", "value": 0}, {"measurement": "Wild oats plant response rating", "setting": "wild oat; [6]", "value": 0}, {"measurement": "Wild oats plant response rating", "setting": "wild oat; [7]", "value": 0}]}
